Source: patent US12435044B2, “Pyridazinone herbicides and pyridazinone intermediates used to prepare a herbicide” (FMC Corporation, priority 2018, dated 2025)

Legend:
Type in all cases: in vivo
[1] = tested on: kochia (Kochia scoparia); assay: Test D pre-/postemergence controlled growth environment test
Description: (§1) Seeds of plant species selected from blackgrass (Alopecurus myosuroides), galium (catchweed bedstraw, Galium aparine), kochia (Kochia scoparia), oilseed rape (Brassica napus), barley, spring (Hordeum vulgare), wheat, spring (Triticum aestivum), oat, wild (Avena fatua), barley, winter (Hordeum vulgare) and wheat, winter (Triticum aestivum) were planted into a silt loam soil and treated preemergence with test chemicals formulated in a non-phytotoxic solvent mixture which included a surfactant.
(§2) At the same time, plants selected from these crop and weed species and also bluegrass (annual bluegrass, Poa annua), canarygrass (littleseed canarygrass, Phalaris minor), chickweed (common chickweed, Stellaria media), bromegrass, downy (downy bromegrass, Bromus tectorum), field poppy (Papaver rhoeas), field violet (Viola arvensis), foxtail, green (Setaria viridis), deadnettle (henbit deadnettle, Lamium amplexicaule), ryegrass, Italian (Lolium multiflorum), lambsquarters (Chenopodium album), pigweed (Amaranthus retroflexus), chamomile (scentless chamomile, Matricaria inodora), Russian thistle (Salsola kali), speedwell (bird's-eye speedwell, Veronica persica), buckwheat, wild (Polygonum convolvulus), mustard, wild (Sinapis arvensis), radish, wild (Raphanus raphanistrum), windgrass (Apera spica-venti), geranium, cutleaf (Geranium dissectum) and Canada thistle (Cirsium arvense) were planted in pots containing Redi-Earth® planting medium (Scotts Company, 14111 Scottslawn Road, Marysville, Ohio 43041) comprising spaghnum peat moss, vermiculite, wetting agent and starter nutrients and treated with postemergence applications of the test chemicals formulated in the same manner. Plants ranged in height from 2 to 18 cm (1- to 4-leaf stage). Treated plants and controls were maintained in a controlled growth environment for 14 to 21 d after which time all species were compared to controls and visually evaluated. Plant response ratings, summarized in Table D, are based on a scale of 0 to 100 where 0 is no effect and 100 is complete control. A dash (-) response means no test result.

[2] = tested on: blackgrass (Alopecurus myosuroides); assay: as above
Description: as §1, §2

[3] = tested on: duck salad (Heteranthera limosa); assay: Test B flooded paddy test; details: Flood, 250 g ai/ha, Ducksalad
Experimental: (§3) Plant species in the flooded paddy test selected from rice (Oryza sativa), sedge, umbrella (small-flower umbrella sedge, Cyperus difformis), duck salad (Heteranthera limosa) and barnyardgrass (Echinochloa crus-galli) were grown to the 2-leaf stage for testing. At time of treatment, test pots were flooded to 3 cm above the soil surface, treated by application of test compounds directly to the paddy water, and then maintained at that water depth for the duration of the test. Treated plants and controls were maintained in a greenhouse for 13 to 15 d, after which time all species were compared to controls and visually evaluated. Plant response ratings, summarized in Table B, are based on a scale of 0 to 100 where 0 is no effect and 100 is complete control. A dash (-) response means no test result.

[4] = tested on: sedge, umbrella (small-flower umbrella sedge, Cyperus difformis); assay: Test B flooded paddy test; details: Flood, 250 g ai/ha
Experimental: as §3

[5] = tested on: barnyardgrass (Echinochloa crus-galli); assay: Test B flooded paddy test; details: Flood, 250 g ai/ha
Experimental: as §3

[6] = tested on: rice (Oryza sativa); assay: Test B flooded paddy test; details: Flood, 250 g ai/ha
Experimental: as §3

[7] = tested on: sedge, umbrella (small-flower umbrella sedge, Cyperus difformis); assay: Test C flooded paddy test; details: Flood, scale 0 to 100
Description: as §3, with “consisted of” for “selected from”, “(transplanted and water seeded, Oryza” for “(Oryza”, “ducksalad” for “duck salad”, “limosa), Bulrush, Japanese (Scirpus juncoides)” for “limosa)”, “crus-galli)” for “crus-galli) were”, “C” for “B,”

[8] = tested on: rice (transplanted and water seeded, Oryza sativa); assay: Test C flooded paddy test; details: Flood, scale 0 to 100
Description: as §3, with “consisted of” for “selected from”, “(transplanted and water seeded, Oryza” for “(Oryza”, “ducksalad” for “duck salad”, “limosa), Bulrush, Japanese (Scirpus juncoides)” for “limosa)”, “crus-galli)” for “crus-galli) were”, “C” for “B,”

[9] = tested on: barnyardgrass (Echinochloa crus-galli); assay: Test C flooded paddy test; details: Flood, scale 0 to 100
Description: as §3, with “consisted of” for “selected from”, “(transplanted and water seeded, Oryza” for “(Oryza”, “ducksalad” for “duck salad”, “limosa), Bulrush, Japanese (Scirpus juncoides)” for “limosa)”, “crus-galli)” for “crus-galli) were”, “C” for “B,”

[10] = tested on: ducksalad (Heteranthera limosa); assay: Test C flooded paddy test; details: Flood, scale 0 to 100
Description: as §3, with “consisted of” for “selected from”, “(transplanted and water seeded, Oryza” for “(Oryza”, “ducksalad” for “duck salad”, “limosa), Bulrush, Japanese (Scirpus juncoides)” for “limosa)”, “crus-galli)” for “crus-galli) were”, “C” for “B,”

[11] = tested on: galium (catchweed bedstraw, Galium aparine); assay: Test A postemergence greenhouse test
Description: (§4) Seeds of plant species selected from barnyardgrass (Echinochloa crus-galli), kochia (Kochia scoparia), ragweed (common ragweed, Ambrosia elatior), ryegrass, Italian (Lolium multiflorum), foxtail, giant (Setaria faberii), foxtail, green (Setaria viridis) and pigweed (Amaranthus retroflexus) were planted into a blend of loam soil and sand and treated preemergence with a directed soil spray using test chemicals formulated in a non-phytotoxic solvent mixture which included a surfactant.
(§5) At the same time, plants selected from these weed species and also wheat (Triticum aestivum), corn (Zea mays), blackgrass (Alopecurus myosuroides) and galium (catchweed bedstraw, Galium aparine) were planted in pots containing the same blend of loam soil and sand and treated with postemergence applications of test chemicals formulated in the same manner. Plants ranged in height from 2 to 10 cm and were in the one- to two-leaf stage for the postemergence treatment. Treated plants and untreated controls were maintained in a greenhouse for approximately 10 d, after which time all treated plants were compared to untreated controls and visually evaluated for injury. Plant response ratings, summarized in Table A, are based on a 0 to 100 scale where 0 is no effect and 100 is complete control. A dash (-) response means no test result.

[12] = tested on: corn (Zea mays); assay: Test A postemergence greenhouse test
Description: as §4, §5

[13] = tested on: wheat (Triticum aestivum); assay: Test A postemergence greenhouse test
Description: as §4, §5

[14] = tested on: blackgrass (Alopecurus myosuroides); assay: Test A postemergence greenhouse test
Description: as §4, §5

Structure (SMILES): Cc1ccc2ccc(C)c(-c3c(O)c(Cl)nn(C)c3=O)c2c1 [Cpd. No. 20, 6-chloro-4-(2,7-dimethyl-1-naphthalenyl)-5-hydroxy-2-methyl-3(2H)-pyridazinone]
- Plant response rating, Kochia ([1]; Postemergence, 16 g ai/ha): 70
- Plant response rating, Kochia ([1]; Postemergence, 31 g ai/ha): 70
- Plant response rating, Kochia ([1]; Postemergence, 62 g ai/ha): 70
- Plant response rating, Kochia ([1]; Postemergence, 125 g ai/ha): 80
- Plant response rating, Kochia ([1]; Preemergence, 16 g ai/ha): 7
- Plant response rating, Kochia ([1]; Preemergence, 31 g ai/ha): 25
- Plant response rating, Kochia ([1]; Preemergence, 62 g ai/ha): 35
- Plant response rating, Kochia ([1]; Preemergence, 125 g ai/ha): 80
- Plant response rating, Blackgrass ([2]; Postemergence, 16 g ai/ha): 15
- Plant response rating, Blackgrass ([2]; Postemergence, 31 g ai/ha): 25
- Plant response rating, Blackgrass ([2]; Postemergence, 62 g ai/ha): 50
- Plant response rating, Blackgrass ([2]; Postemergence, 125 g ai/ha): 60
- Plant response rating, Blackgrass ([2]; Preemergence, 16 g ai/ha): 0
- Plant response rating, Blackgrass ([2]; Preemergence, 31 g ai/ha): 8
- Plant response rating, Blackgrass ([2]; Preemergence, 62 g ai/ha): 20
- Plant response rating, Blackgrass ([2]; Preemergence, 125 g ai/ha): 58
- Plant response rating (0 to 100 scale) [3]: 100
- Plant response rating (0 to 100 scale) [4]: 90
- Plant response rating (0 to 100 scale) [5]: 25
- Plant response rating (0 to 100 scale) [6]: 15
- Plant response rating, Sedge, Umbrella ([7]; 31 g ai/ha): 0
- Plant response rating, Sedge, Umbrella ([7]; 62 g ai/ha): 0
- Plant response rating, Sedge, Umbrella ([7]; 125 g ai/ha): 50
- Plant response rating, Sedge, Umbrella ([7]; 250 g ai/ha): 70
- Plant response rating, Rice, Transplanted ([8]; 31 g ai/ha): 0
- Plant response rating, Rice, Water Seeded ([8]; 31 g ai/ha): 0
- Plant response rating, Rice, Transplanted ([8]; 62 g ai/ha): 0
- Plant response rating, Rice, Water Seeded ([8]; 62 g ai/ha): 0
- Plant response rating, Rice, Transplanted ([8]; 125 g ai/ha): 0
- Plant response rating, Rice, Water Seeded ([8]; 125 g ai/ha): 0
- Plant response rating, Rice, Transplanted ([8]; 250 g ai/ha): 0
- Plant response rating, Rice, Water Seeded ([8]; 250 g ai/ha): 0
- Plant response rating, Barnyardgrass ([9]; 31 g ai/ha): 0
- Plant response rating, Barnyardgrass ([9]; 62 g ai/ha): 0
- Plant response rating, Barnyardgrass ([9]; 125 g ai/ha): 0
- Plant response rating, Barnyardgrass ([9]; 250 g ai/ha): 20
- Plant response rating, Ducksalad ([10]; 31 g ai/ha): 0
- Plant response rating, Ducksalad ([10]; 62 g ai/ha): 30
- Plant response rating, Ducksalad ([10]; 125 g ai/ha): 70
- Plant response rating, Ducksalad ([10]; 250 g ai/ha): 85
- Plant response rating (0 to 100 scale) ([11]; 31 g ai/ha): 90
- Plant response rating (0 to 100 scale) ([11]; 125 g ai/ha): 100
- Plant response rating (0 to 100 scale) ([12]; 31 g ai/ha): 30
- Plant response rating (0 to 100 scale) ([12]; 125 g ai/ha): 30
- Plant response rating (0 to 100 scale) ([13]; 31 g ai/ha): 20
- Plant response rating (0 to 100 scale) ([13]; 125 g ai/ha): 30
- Plant response rating (0 to 100 scale) ([14]; 31 g ai/ha): 0
- Plant response rating (0 to 100 scale) ([14]; 125 g ai/ha): 60

Structure (SMILES): Cc1ccc2ccc(F)cc2c1-c1c(O)c(Cl)nn(C)c1=O [Cpd. No. 21]
- Plant response rating (0 to 100 scale) [3]: 90
- Plant response rating (0 to 100 scale) [4]: 90
- Plant response rating (0 to 100 scale) [5]: 80
- Plant response rating (0 to 100 scale) [6]: 35
- Plant response rating, Sedge, Umbrella ([7]; 31 g ai/ha): 0
- Plant response rating, Sedge, Umbrella ([7]; 62 g ai/ha): 0
- Plant response rating, Sedge, Umbrella ([7]; 125 g ai/ha): 0
- Plant response rating, Sedge, Umbrella ([7]; 250 g ai/ha): 0
- Plant response rating, Rice, Transplanted ([8]; 31 g ai/ha): 0
- Plant response rating, Rice, Transplanted ([8]; 62 g ai/ha): 0
- Plant response rating, Rice, Transplanted ([8]; 125 g ai/ha): 0
- Plant response rating, Rice, Transplanted ([8]; 250 g ai/ha): 15
- Plant response rating, Barnyardgrass ([9]; 31 g ai/ha): 0
- Plant response rating, Barnyardgrass ([9]; 62 g ai/ha): 0
- Plant response rating, Barnyardgrass ([9]; 125 g ai/ha): 30
- Plant response rating, Barnyardgrass ([9]; 250 g ai/ha): 65
- Plant response rating, Ducksalad ([10]; 31 g ai/ha): 0
- Plant response rating, Ducksalad ([10]; 62 g ai/ha): 30
- Plant response rating, Ducksalad ([10]; 125 g ai/ha): 80
- Plant response rating, Ducksalad ([10]; 250 g ai/ha): 85
- Plant response rating (0 to 100 scale) ([11]; 31 g ai/ha): 100
- Plant response rating (0 to 100 scale) ([11]; 125 g ai/ha): 100
- Plant response rating (0 to 100 scale) ([12]; 31 g ai/ha): 10
- Plant response rating (0 to 100 scale) ([12]; 125 g ai/ha): 20
- Plant response rating (0 to 100 scale) ([13]; 31 g ai/ha): 50
- Plant response rating (0 to 100 scale) ([13]; 125 g ai/ha): 80
- Plant response rating (0 to 100 scale) ([14]; 31 g ai/ha): 50
- Plant response rating (0 to 100 scale) ([14]; 125 g ai/ha): 70
